test system: HCV 1b-377-neo replicon cells; experiment: HCV replicon assay, HCV 1b-377-neo replicon cells (1b FRET); format: cell-based, Hepatitis C virus genotype 1b; conditions: Hepatitis C virus, HCV 1b-377-neo replicon cells; HCV 1b genotype; read-out: EC50 range against HCV 1b (Table 2, Range)
In short: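 Compounds were tested in genotype 1b subgenomic replicon cells carrying a neomycin marker, alongside a matched replicon line with an NS5A Y2065H substitution that confers resistance to a reference NS5A inhibitor.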

Row | Structure (SMILES) | EC50 [nM]
1 | COC(=O)N[C@@H](C(=O)N1CCC[C@H]1c1ncc(-c2ccc(-c3ccc(-c4cnc([C@@H]5CCCN5C(=O)COc5ccccc5OC)[nH]4)cc3)cc2)[nH]1)c1ccccc1 [Example 84-26, methyl ((1R)-2-((2S)-2-(5-(4′-(2-((2S)-1-((2-methoxyphenoxy)acetyl)-2-pyrrolidinyl)-1H-imidazol-5-yl)-4-biphenylyl)-1H-imidazol-2-yl)-1-pyrrolidinyl)-2-oxo-1-phenylethyl)carbamate] | 0.001 to 0.999
2 | COC(=O)N[C@@H](C(=O)N[C@@H](C)c1ncc(-c2ccc(-c3ncc(-c4cnc([C@@H]5CCCN5C(=O)[C@@H](c5ccccc5)N5CCCCC5)[nH]4)cn3)cc2)[nH]1)c1ccccc1 [Example 152l-2, methyl ((1R)-2-oxo-1-phenyl-2-(((1S)-1-(4-(4-(5-(2-((2S)-1-((2R)-2-phenyl-2-(1-piperidinyl)acetyl)-2-pyrrolidinyl)-1H-imidazol-5-yl)-2-pyrimidinyl)phenyl)-1H-imidazol-2-yl)ethyl)amino)ethyl)carbamate] | 0.001 to 0.999
3 | Cc1nc([C@@H]2CCCN2C(=O)[C@@H](c2ccccc2)N2CCCCC2)[nH]c1-c1ccc(-c2ccc(-c3nc([C@@H]4CCCN4C(=O)[C@@H](c4ccccc4)N4CCCCC4)[nH]c3C)cc2)cc1 [Example E5i, 1,1′-(4,4′-biphenyldiylbis((4-methyl-1H-imidazole-5,2-diyl)(2S)-2,1-pyrrolidinediyl((1R)-2-oxo-1-phenyl-2,1-ethanediyl)))dipiperidine] | 0.001 to 0.999
4 | COC(=O)N[C@H](C(=O)N1CCC[C@H]1c1ncc(-c2ccc(-c3ccc(-c4cnc([C@@H]5CCCN5C(=O)[C@H](NC5=NCCN5C)C(C)C)[nH]4)cc3)cc2)[nH]1)C(C)C [cj-11m, methyl ((1S)-2-methyl-1-(((2S)-2-(5-(4′-(2-((2S)-1-(N-(1-methyl-4,5-dihydro-1H-imidazol-2-yl)-D-valyl)-2-pyrrolidinyl)-1H-imidazol-5-yl)-4-biphenylyl)-1H-imidazol-2-yl)-1-pyrrolidinyl)carbonyl)propyl)carbamate] | 1 to 99
5 | COC(=O)N[C@@H](CC(C)C)C(=O)N1CCC[C@H]1c1ncc(-c2ccc(-c3ccc(-c4cnc([C@@H]5CCCN5C(=O)[C@H](CC(C)C)NC(=O)OC)[nH]4)cc3)cc2)[nH]1 [OL-6, methyl ((1S)-1-(((2S)-2-(4-(4′-(2-((2S)-1-((2S)-2-((methoxycarbonyl)amino)-4-methylpentanoyl)-2-pyrrolidinyl)-1H-imidazol-4-yl)-4-biphenylyl)-1H-imidazol-2-yl)-1-pyrrolidinyl)carbonyl)-3-methylbutyl)carbamate] | 0.001 to 0.999
6 | COC(=O)N[C@@H](C)C(=O)N1CC(F)(F)C[C@H]1c1ncc(-c2ccc(-c3ccc(-c4cnc([C@@H]5CC(F)(F)CN5C(=O)[C@H](C)NC(=O)OC)[nH]4)cc3)cc2)[nH]1 [OL-11, methyl ((1S)-2-((2S)-2-(4-(4′-(2-((2S)-4,4-difluoro-1-(N-(methoxycarbonyl)-L-alanyl)-2-pyrrolidinyl)-1H-imidazol-4-yl)-4-biphenylyl)-1H-imidazol-2-yl)-4,4-difluoro-1-pyrrolidinyl)-1-methyl-2-oxoethyl)carbamate] | 0.001 to 0.999
7 | COC(=O)N[C@@H](C(=O)N[C@@H](C)c1ncc(-c2cnc(-c3ccc(-c4cnc([C@@H]5CCCN5C(=O)[C@H](NC(=O)OC)c5ccccc5)[nH]4)cc3)cn2)[nH]1)c1ccccc1 [Example 152j-19, methyl ((1R)-2-((2S)-2-(5-(4-(5-(2-((1S)-1-(((2R)-2-((methoxycarbonyl)amino)-2-phenylacetyl)amino)ethyl)-1H-imidazol-5-yl)-2-pyrazinyl)phenyl)-1H-imidazol-2-yl)-1-pyrrolidinyl)-2-oxo-1-phenylethyl)carbamate] | 0.001 to 0.999
8 | COC(=O)N[C@@H](C(=O)N1CCC[C@H]1c1nc(-c2cnc(-c3ccc(-c4cnc([C@@H]5CCCN5C(=O)[C@H](NC(=O)OC)c5ccccc5)[nH]4)c(F)c3)nc2)c[nH]1)c1ccccc1 [Example D69, methyl ((1R)-2-((2S)-2-(5-(2-(3-fluoro-4-(2-((2S)-1-((2R)-2-((methoxycarbonyl)amino)-2-phenylacetyl)-2-pyrrolidinyl)-1H-imidazol-5-yl)phenyl)-5-pyrimidinyl)-1H-imidazol-2-yl)-1-pyrrolidinyl)-2-oxo-1-phenylethyl)carbamate] | 0.001 to 0.999
9 | COC(=O)N[C@@H](C(=O)N1CCC[C@H]1c1ncc(-c2ccc(-c3cc(F)c(-c4cnc([C@@H]5CCCN5C(=O)[C@H](NC(=O)OC)c5ccccc5)[nH]4)cc3F)cc2)[nH]1)c1ccccc1 [Example D53, dimethyl ((2,5-difluoro-4,4′-biphenyldiyl)bis(1H-imidazole-5,2-diyl(2S)-2,1-pyrrolidinediyl((1R)-2-oxo-1-phenyl-2,1-ethanediyl))) biscarbamate] | 0.001 to 0.999
10 | CCN(CC)[C@H]1CC[C@@H](C(=O)N2CCC[C@H]2c2ncc(-c3ccc(-c4ccc(-c5cnc([C@@H]6CCCN6C(=O)[C@@H](NC(=O)OC)C(C)C)[nH]5)cc4)cc3)[nH]2)CC1 [cj-71, methyl ((1S)-1-(((2S)-2-(5-(4′-(2-((2S)-1-((cis-4-(diethylamino)cyclohexyl)carbonyl)-2-pyrrolidinyl)-1H-imidazol-5-yl)-4-biphenylyl)-1H-imidazol-2-yl)-1-pyrrolidinyl)carbonyl)-2-methylpropyl)carbamate] | 0.001 to 0.999
11 | CN(C)[C@@H](C(=O)N1CCC[C@H]1c1ncc(-c2ccc(-c3ccc(-c4cnc([C@@H]5CCCN5C(=O)Cc5cccs5)[nH]4)cc3)cc2)[nH]1)c1ccccc1 [Example 94-47, (1R)-N,N-dimethyl-2-oxo-1-phenyl-2-((2S)-2-(5-(4′-(2-((2S)-1-(2-thienylacetyl)-2-pyrrolidinyl)-1H-imidazol-5-yl)-4-biphenylyl)-1H-imidazol-2-yl)-1-pyrrolidinyl)ethanamine] | 0.001 to 0.999
12 | O=C([C@@H](c1ccccc1)N1CCCC1)N1CCC[C@H]1c1ncc(-c2ccc(-c3ccc(-c4cnc([C@@H]5CCCN5C(=O)[C@@H](c5ccccc5)N5CCCC5)[nH]4)cc3)cc2)[nH]1 [Example 17, 5,5′-(4,4′-biphenyldiyl)bis(2-((2S)-1-((2R)-2-phenyl-2-(1-pyrrolidinyl)acetyl)-2-pyrrolidinyl)-1H-imidazole)] | 0.001 to 0.999
13 | COC(=O)N[C@H](C(=O)N1CCC[C@H]1c1ncc(-c2ccc(-c3ccc(-c4cnc([C@@H]5CCCN5C(=O)CNCC(C)C)[nH]4)cc3)cc2)[nH]1)C(C)C [LS23, methyl ((1S)-1-(((2S)-2-(5-(4′-(2-((2S)-1-(N-isobutylglycyl)-2-pyrrolidinyl)-1H-imidazol-5-yl)-4-biphenylyl)-1H-imidazol-2-yl)-1-pyrrolidinyl)carbonyl)-2-methylpropyl)carbamate] | 0.001 to 0.999
14 | CCN(CC)[C@@H](C(=O)N1CCC[C@H]1c1ncc(-c2ccc(-c3ccc(-c4cnc([C@@H]5CCCN5C(=O)[C@@H](C)NC(=O)OC)[nH]4)cc3)cc2)[nH]1)c1ccccc1 [Example M53, methyl ((1R)-2-((2S)-2-(5-(4′-(2-((2S)-1-((2R)-2-(diethylamino)-2-phenylacetyl)-2-pyrrolidinyl)-1H-imidazol-5-yl)-4-biphenylyl)-1H-imidazol-2-yl)-1-pyrrolidinyl)-1-methyl-2-oxoethyl)carbamate] | 1 to 99
